From PubChem BioAssay AID1963863 (Molecular Pharmacology Branch, DTP, NCI, 2024)
pIC50: −log10 of the molar value.

Tested on: 931267-113-T-J1-PDC KRAS spheroid with HUVEC/MSC, viability
Test: Anticancer human tumor 931267-113-T-J1-PDC patient-derived colon adenocarcinoma cell line growth inhibition [KRAS2]
Conditions: for pIC50: curve of first compound; for viability, T/C: stronger effect = lower value
Method in brief: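 KRAS-mutant tumor cells were grown as spheroids with HUVEC endothelial cells and human MSCs as stroma. Targeted agents were tested alone and with KRAS pathway inhibitors. Doses started at or near clinical Cmax, or 10 microM, descending half-log.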

[1] = second compound 0.1 µM, first compound 0.0316 µM
[2] = second compound 0.1 µM, first compound 0.1 µM
[3] = second compound 0.1 µM, first compound 0.316 µM
[4] = second compound 0.1 µM, first compound 1 µM
[5] = second compound 0.1 µM, first compound 3.16 µM
[6] = second compound 0.1 µM, first compound 10 µM
[7] = second compound 0.316 µM, first compound 0.0316 µM
[8] = second compound 0.316 µM, first compound 0.1 µM
[9] = second compound 0.316 µM, first compound 0.316 µM
[10] = second compound 0.316 µM, first compound 1 µM
[11] = second compound 0.316 µM, first compound 3.16 µM
[12] = second compound 0.316 µM, first compound 10 µM
[13] = second compound 1 µM, first compound 0.0316 µM
[14] = second compound 1 µM, first compound 0.1 µM
[15] = second compound 1 µM, first compound 0.316 µM
[16] = second compound 1 µM, first compound 1 µM
[17] = second compound 1 µM, first compound 3.16 µM
[18] = second compound 1 µM, first compound 10 µM
[19] = second compound 3.16 µM, first compound 0.0316 µM
[20] = second compound 3.16 µM, first compound 0.1 µM
[21] = second compound 3.16 µM, first compound 0.316 µM
[22] = second compound 3.16 µM, first compound 1 µM
[23] = second compound 3.16 µM, first compound 3.16 µM
[24] = second compound 3.16 µM, first compound 10 µM
[25] = second compound 10 µM, first compound 0.0316 µM
[26] = second compound 10 µM, first compound 0.1 µM
[27] = second compound 10 µM, first compound 0.316 µM
[28] = second compound 10 µM, first compound 1 µM
[29] = second compound 0.1 µM, first compound 0.00316 µM
[30] = second compound 0.1 µM, first compound 0.01 µM
[31] = second compound 0.316 µM, first compound 0.00316 µM
[32] = second compound 0.316 µM, first compound 0.01 µM
[33] = second compound 1 µM, first compound 0.00316 µM
[34] = second compound 1 µM, first compound 0.01 µM
[35] = second compound 3.16 µM, first compound 0.00316 µM
[36] = second compound 3.16 µM, first compound 0.01 µM
[37] = second compound 10 µM, first compound 0.00316 µM
[38] = second compound 10 µM, first compound 0.01 µM
[39] = second compound 0.1 µM, first compound 0.000316 µM
[40] = second compound 0.1 µM, first compound 0.001 µM
[41] = second compound 0.316 µM, first compound 0.000316 µM
[42] = second compound 0.316 µM, first compound 0.001 µM
[43] = second compound 1 µM, first compound 0.000316 µM
[44] = second compound 1 µM, first compound 0.001 µM
[45] = second compound 3.16 µM, first compound 0.000316 µM
[46] = second compound 3.16 µM, first compound 0.001 µM
[47] = second compound 0.0316 µM, first compound 0.0316 µM
[48] = second compound 0.0316 µM, first compound 0.1 µM
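Also: compound exposure lasted 7 days before the readout.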
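For viability, T/C in this document: 100% = DMSO vehicle control viability.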

COc1cc(Nc2ncc3c(n2)-c2ccc(Cl)cc2C(c2c(F)cccc2OC)=NC3)ccc1C(=O)O + CC1OCC2(CCN(c3cnc(Sc4ccnc(N)c4Cl)c(N)n3)CC2)C1N
pIC50 (second compound 0.1 µM): < 5.00 | pIC50 (second compound 0.316 µM): 5.19 | pIC50 (second compound 1 µM): 6.07 | pIC50 (second compound 3.16 µM): 6.24 | pIC50 (second compound 10 µM): 6.10 | viability, T/C [1]: 69.3% | viability, T/C [2]: 75.1% | viability, T/C [3]: 58.4% | viability, T/C [4]: 58% | viability, T/C [5]: 51.7% | viability, T/C [6]: 54% | viability, T/C [7]: 67.4% | viability, T/C [8]: 68.7% | viability, T/C [9]: 57.1% | viability, T/C [10]: 61.3% | viability, T/C [11]: 49% | viability, T/C [12]: 49.5% | viability, T/C [13]: 62.4% | viability, T/C [14]: 52.4% | viability, T/C [15]: 54.4% | viability, T/C [16]: 51.5% | viability, T/C [17]: 41.3% | viability, T/C [18]: 31.6% | viability, T/C [19]: 53.4% | viability, T/C [20]: 64.6% | viability, T/C [21]: 56.8% | viability, T/C [22]: 42% | viability, T/C [23]: 33.3% | viability, T/C [24]: 21.6% | viability, T/C [25]: 70.2% | viability, T/C [26]: 65.4% | viability, T/C [27]: 51.1% | viability, T/C [28]: 46.8% | viability, T/C (second compound 10 µM, first compound 3.16 µM): 43.3% | viability, T/C (second compound 10 µM, first compound 10 µM): 15.8%

CCN1CCN(Cc2ccc(Nc3ncc(F)c(-c4cc(F)c5nc(C)n(C(C)C)c5c4)n3)nc2)CC1 + COc1cc2nc(C)nc(NC(C)c3cc(N)cc(C(F)(F)F)c3)c2cc1OC1CCOC1
pIC50 (second compound 0.1 µM): 6.34 | pIC50 (second compound 0.316 µM): 6.91 | pIC50 (second compound 1 µM): 6.59 | pIC50 (second compound 3.16 µM): 7.17 | pIC50 (second compound 10 µM): > 8.50 | viability, T/C [29]: 86.4% | viability, T/C [30]: 86.8% | viability, T/C [1]: 62.5% | viability, T/C [2]: 74.7% | viability, T/C [3]: 45.5% | viability, T/C [4]: 45.9% | viability, T/C [31]: 80.6% | viability, T/C [32]: 90.1% | viability, T/C [7]: 72.2% | viability, T/C [8]: 51.2% | viability, T/C [9]: 47.2% | viability, T/C [10]: 37.4% | viability, T/C [33]: 78.7% | viability, T/C [34]: 78.1% | viability, T/C [13]: 76.3% | viability, T/C [14]: 56.4% | viability, T/C [15]: 53.2% | viability, T/C [16]: 42.7% | viability, T/C [35]: 74.5% | viability, T/C [36]: 67.2% | viability, T/C [19]: 49.7% | viability, T/C [20]: 48.8% | viability, T/C [21]: 42.4% | viability, T/C [22]: 27.1% | viability, T/C [37]: 3.71% | viability, T/C [38]: 1.83% | viability, T/C [25]: 2.06% | viability, T/C [26]: 3.4% | viability, T/C [27]: 1.38% | viability, T/C [28]: 0.23%

CC(=O)Nc1cccc(-n2c(=O)n(C3CC3)c(=O)c3c(Nc4ccc(I)cc4F)n(C)c(=O)c(C)c32)c1 + CNCc1ccccc1-c1csc(C(C)Nc2nc(C)nc3cc(OC)c(OC)cc23)c1
pIC50 (second compound 0.1 µM): 8.04 | pIC50 (second compound 0.316 µM): 8.17 | pIC50 (second compound 1 µM): > 10.00 | pIC50 (second compound 3.16 µM): > 10.00 | pIC50 (second compound 10 µM): > 10.00 | viability, T/C (second compound 0.1 µM, first compound 0.0001 µM): 86.5% | viability, T/C [39]: 89.1% | viability, T/C [40]: 75.8% | viability, T/C [29]: 59.7% | viability, T/C [30]: 56% | viability, T/C [1]: 14.1% | viability, T/C (second compound 0.316 µM, first compound 0.0001 µM): 91.8% | viability, T/C [41]: 111% | viability, T/C [42]: 83.3% | viability, T/C [31]: 60.8% | viability, T/C [32]: 47.8% | viability, T/C [7]: 25.3% | viability, T/C (second compound 1 µM, first compound 0.0001 µM): 50.4% | viability, T/C [43]: 17% | viability, T/C [44]: 1.23% | viability, T/C [33]: 10.3% | viability, T/C [34]: 2.02% | viability, T/C [13]: 1.26% | viability, T/C (second compound 3.16 µM, first compound 0.0001 µM): 1.06% | viability, T/C [45]: 0.32% | viability, T/C [46]: 0.34% | viability, T/C [35]: 0.19% | viability, T/C [36]: 0.19% | viability, T/C [19]: 0.41% | viability, T/C (second compound 10 µM, first compound 0.0001 µM): 0.57% | viability, T/C (second compound 10 µM, first compound 0.000316 µM): 0.16% | viability, T/C (second compound 10 µM, first compound 0.001 µM): 0.14% | viability, T/C [37]: 0.13% | viability, T/C [38]: 0.15% | viability, T/C [25]: 2.55%

CN(C)C/C=C/C(=O)Nc1cc2c(Nc3ccc(F)c(Cl)c3)ncnc2cc1O[C@H]1CCOC1 + C=CC(=O)N1CCN(c2nc(OCC3CCCN3C)nc3c2CCN(c2cccc4cccc(C)c24)C3)CC1CC#N
pIC50 (second compound 0.0316 µM): < 7.00 | pIC50 (second compound 0.1 µM): < 7.00 | pIC50 (second compound 0.316 µM): < 7.00 | pIC50 (second compound 1 µM): < 7.00 | pIC50 (second compound 3.16 µM): > 9.50 | viability, T/C (second compound 0.0316 µM, first compound 0.000316 µM): 82.1% | viability, T/C (second compound 0.0316 µM, first compound 0.001 µM): 86.9% | viability, T/C (second compound 0.0316 µM, first compound 0.00316 µM): 98.2% | viability, T/C (second compound 0.0316 µM, first compound 0.01 µM): 68.6% | viability, T/C [47]: 78.3% | viability, T/C [48]: 75.8% | viability, T/C [39]: 89.2% | viability, T/C [40]: 98% | viability, T/C [29]: 65.7% | viability, T/C [30]: 62.1% | viability, T/C [1]: 65.9% | viability, T/C [2]: 64.1% | viability, T/C [41]: 77.6% | viability, T/C [42]: 70.7% | viability, T/C [31]: 69.3% | viability, T/C [32]: 62.2% | viability, T/C [7]: 66.2% | viability, T/C [8]: 70.7% | viability, T/C [43]: 59.1% | viability, T/C [44]: 72.6% | viability, T/C [33]: 70% | viability, T/C [34]: 72.1% | viability, T/C [13]: 53.1% | viability, T/C [14]: 59.6% | viability, T/C [45]: 0.31% | viability, T/C [46]: 0.19% | viability, T/C [35]: 0.24% | viability, T/C [36]: 0.2% | viability, T/C [19]: 0.21% | viability, T/C [20]: 0.47%

COc1cc(Nc2ncc3c(n2)-c2ccc(Cl)cc2C(c2c(F)cccc2OC)=NC3)ccc1C(=O)O + C=CC(=O)N1CCN(c2nc(OCC3CCCN3C)nc3c2CCN(c2cccc4cccc(C)c24)C3)CC1CC#N
pIC50 (second compound 0.0316 µM): < 5.00 | pIC50 (second compound 0.1 µM): < 5.00 | pIC50 (second compound 0.316 µM): < 5.00 | pIC50 (second compound 1 µM): 5.30 | pIC50 (second compound 3.16 µM): > 7.50 | viability, T/C [47]: 87.9% | viability, T/C [48]: 89.5% | viability, T/C (second compound 0.0316 µM, first compound 0.316 µM): 93.8% | viability, T/C (second compound 0.0316 µM, first compound 1 µM): 75.6% | viability, T/C (second compound 0.0316 µM, first compound 3.16 µM): 95.8% | viability, T/C (second compound 0.0316 µM, first compound 10 µM): 68.1% | viability, T/C [1]: 106% | viability, T/C [2]: 89.7% | viability, T/C [3]: 85.6% | viability, T/C [4]: 88% | viability, T/C [5]: 68.6% | viability, T/C [6]: 58.3% | viability, T/C [7]: 93.5% | viability, T/C [8]: 91.8% | viability, T/C [9]: 91.7% | viability, T/C [10]: 55.6% | viability, T/C [11]: 70% | viability, T/C [12]: 63% | viability, T/C [13]: 92.6% | viability, T/C [14]: 60.3% | viability, T/C [15]: 66.4% | viability, T/C [16]: 64.1% | viability, T/C [17]: 66% | viability, T/C [18]: 31.8% | viability, T/C [19]: 0.22% | viability, T/C [20]: 0.29% | viability, T/C [21]: 0.25% | viability, T/C [22]: 0.3% | viability, T/C [23]: 0.17% | viability, T/C [24]: 0.23%
